In the first test the target is human recombinant Btk (Homo sapiens (Human), UniProt Q06187). Nature of the test: Btk enzymatic activity assay (Caliper-based kinase assay). The conditions noted are these: human recombinant Btk 2 nM, ATP 40 μM, peptide substrate 1 μM, room temperature 3 h; read-out: IC50 (μm). Type of test: biochemical.
Chain of human recombinant Btk (Q06187 whole entry): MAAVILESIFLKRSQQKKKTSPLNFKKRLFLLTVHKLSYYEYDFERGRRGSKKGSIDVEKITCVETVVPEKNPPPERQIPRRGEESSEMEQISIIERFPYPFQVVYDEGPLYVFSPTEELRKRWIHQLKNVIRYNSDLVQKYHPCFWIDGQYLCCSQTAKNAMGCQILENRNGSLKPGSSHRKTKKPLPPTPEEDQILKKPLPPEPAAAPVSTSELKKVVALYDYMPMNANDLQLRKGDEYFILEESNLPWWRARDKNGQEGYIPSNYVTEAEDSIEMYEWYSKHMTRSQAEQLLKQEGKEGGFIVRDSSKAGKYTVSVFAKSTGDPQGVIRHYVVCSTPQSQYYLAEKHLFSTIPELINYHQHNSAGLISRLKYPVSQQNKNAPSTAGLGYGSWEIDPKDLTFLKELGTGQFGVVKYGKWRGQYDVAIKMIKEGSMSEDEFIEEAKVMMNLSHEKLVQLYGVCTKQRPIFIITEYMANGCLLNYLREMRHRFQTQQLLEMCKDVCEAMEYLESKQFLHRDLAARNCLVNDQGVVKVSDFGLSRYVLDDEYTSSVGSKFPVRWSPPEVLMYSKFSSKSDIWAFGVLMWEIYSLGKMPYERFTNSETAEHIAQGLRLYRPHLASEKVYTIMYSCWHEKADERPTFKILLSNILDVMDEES
Procedure: A Caliper-based kinase assay (Caliper Life Sciences, Hopkinton, Mass.) was used to measure inhibition of Btk kinase activity of a compound of Formula (I). […] The reaction was then terminated with EDTA, final concentration 20 mM and the phosphorylated reaction product was quantified on a Caliper Desktop Profiler (Caliper LabChip 3000). […] This value is presented as the IC50.
Turning to `N#CC(=CC1CC1)C(=O)N1CCC(n2nc(-c3ccc(Oc4ccccc4)cc3)c3c(N)ncnc32)CC1` [Cpd 3, 2-(4-(4-amino-3-(4-phenoxyphenyl)-1H-pyrazolo[3,4-d]pyrimidin-1-yl)piperidine-1-carbonyl)-3-cyclopropylacrylonitrile], the IC50 was determined as 175 nM.
For `COc1cc(-c2nn(CC3CCCN3C(=O)C(C#N)=CC3CC3)c3ncnc(N)c23)ccc1Oc1ccc(Cl)c(Cl)c1` (stereo not shown) [Cpd 5], the IC50 worked out at 1 nM.
As to `N#CC(=CC1CC1)C(=O)NC1CCC(n2nc(-c3ccc(Oc4ccccc4)cc3)c3c(N)ncnc32)CC1` (stereo not shown) [Cpd 11, N-((1s,4s)-4-(4-amino-3-(4-phenoxyphenyl)-1H-pyrazolo[3,4-d]pyrimidin-1-yl)cyclohexyl)-2-cyano-3-cyclopropylacrylamide], the IC50 worked out at 14 nM.
For the compound `[C-]#[N+]C(=CC1CC1)C(=O)N1CCC[C@@H](n2nc(-c3ccc(Oc4ccccc4)cc3F)c3c(N)ncnc32)C1` [Cpd 22B], the IC50 was found to be 2.6 nM.
`N#CC(=CC1CC1)C(=O)N1CCC[C@@H]1Cn1nc(-c2ccc(Oc3c(F)cccc3F)cc2F)c2c(N)ncnc21` [Cpd 44A, (R)-2-(2-((4-amino-3-(2-fluoro-4-(2,6-difluorophenoxy)phenyl)-1H-pyrazolo[3,4-d]pyrimidin-1-yl)methyl)pyrrolidine-1-carbonyl)-3-cyclopropylacrylonitrile]: the concentration for half-maximal inhibition (IC50) turned out to be 5 nM.
Regarding `N#CC(=CC1CC1)C(=O)N1CCC[C@H]1Cn1nc(-c2ccc(Oc3c(F)cccc3F)cc2F)c2c(N)ncnc21` [Cpd 44B, (S)-2-(2-((4-amino-3-(2-fluoro-4-(2,6-difluorophenoxy)phenyl)-1H-pyrazolo[3,4-d]pyrimidin-1-yl)methyl)pyrrolidine-1-carbonyl)-3-cyclopropylacrylonitrile], the IC50 was found to be 3 nM.
As to `CC(C)(C=C(C#N)C(=O)N1CCC[C@H]1Cn1nc(-c2ccc(Oc3ccccc3)cc2F)c2c(N)ncnc21)NC1CC1` [Cpd 87B, (S)-2-(2-((4-amino-3-(2-fluoro-4-phenoxyphenyl)-1H-pyrazolo[3,4-d]pyrimidin-1-yl)methyl)pyrrolidine-1-carbonyl)-4-(cyclopropylamino)-4-methylpent-2-enenitrile], the half-inhibitory concentration (IC50) came to 12 nM.
Turning to `COCCNC(C)(C)C=C(C#N)C(=O)N1CCC[C@H]1Cn1nc(-c2ccc(Oc3ccccc3)cc2F)c2c(N)ncnc21` [Cpd 88B, (S)-2-(2-((4-amino-3-(2-fluoro-4-phenoxyphenyl)-1H-pyrazolo[3,4-d]pyrimidin-1-yl)methyl)pyrrolidine-1-carbonyl)-4-((2-methoxyethyl)amino)-4-methylpent-2-enenitrile], the IC50 was 29 nM.
As for `CCOC(C)(C)C=C(C#N)C(=O)N1CCC[C@@H]1Cn1nc(-c2ccc(Oc3ccccc3)cc2F)c2c(N)ncnc21` [Cpd 89A, (R)-2-(2-((4-amino-3-(2-fluoro-4-phenoxyphenyl)-1H-pyrazolo[3,4-d]pyrimidin-1-yl)methyl)pyrrolidine-1-carbonyl)-4-ethoxy-4-methylpent-2-enenitrile], the 50% inhibitory concentration (IC50) came out at 3100 nM.
As for `CCOC(C)(C)C=C(C#N)C(=O)N1CCC[C@H]1Cn1nc(-c2ccc(Oc3ccccc3)cc2F)c2c(N)ncnc21` [Cpd 89B, (S)-2-(2-((4-amino-3-(2-fluoro-4-phenoxyphenyl)-1H-pyrazolo[3,4-d]pyrimidin-1-yl)methyl)pyrrolidine-1-carbonyl)-4-ethoxy-4-methylpent-2-enenitrile], the IC50 turned out to be 6600 nM.
Same read-out and setting: the value for `CC(C)(C=C(C#N)C(=O)N1CCC[C@@H]1Cn1nc(-c2ccc(Oc3ccccc3)cc2F)c2c(N)ncnc21)N1CCOCC1` [Cpd 95A, (R)-2-(2-((4-amino-3-(2-fluoro-4-phenoxyphenyl)-1H-pyrazolo[3,4-d]pyrimidin-1-yl)methyl)pyrrolidine-1-carbonyl)-4-methyl-4-morpholinopent-2-enenitrile] was 26.5 nM; that for `CC(C)(C=C(C#N)C(=O)N1CCC[C@H]1Cn1nc(-c2ccc(Oc3ccccc3)cc2F)c2c(N)ncnc21)N1CCOCC1` [Cpd 95B, (S)-2-(2-((4-amino-3-(2-fluoro-4-phenoxyphenyl)-1H-pyrazolo[3,4-d]pyrimidin-1-yl)methyl)pyrrolidine-1-carbonyl)-4-methyl-4-morpholinopent-2-enenitrile] was 3.2 nM; that for `CNC(C)(C)C=C(C#N)C(=O)N1CCC[C@@H]1Cn1nc(-c2ccc(Oc3cccc(F)c3F)cc2F)c2c(N)ncnc21` [Cpd 105A, (R)-2-(2-((4-amino-3-(4-(2,3-difluorophenoxy)-2-fluorophenyl)-1H-pyrazolo[3,4-d]pyrimidin-1-yl)methyl)pyrrolidine-1-carbonyl)-4-methyl-4-(methylamino)pent-2-enenitrile] was 1.3 nM.
The same measure, in the same setting: the same measure for `CNC(C)(C)C=C(C#N)C(=O)N1CCC[C@H]1Cn1nc(-c2ccc(Oc3cccc(F)c3F)cc2F)c2c(N)ncnc21` [Cpd 105B, (S)-2-(2-((4-amino-3-(4-(2,3-difluorophenoxy)-2-fluorophenyl)-1H-pyrazolo[3,4-d]pyrimidin-1-yl)methyl)pyrrolidine-1-carbonyl)-4-methyl-4-(methylamino)pent-2-enenitrile]: 25.5 nM.
For `CN(C)C(C)(C)C=C(C#N)C(=O)N1CCC[C@@H]1Cn1nc(-c2ccc(Oc3cccc(F)c3F)cc2F)c2c(N)ncnc21` [Cpd 106A, (R)-2-(2-((4-amino-3-(4-(2,3-difluorophenoxy)-2-fluorophenyl)-1H-pyrazolo[3,4-d]pyrimidin-1-yl)methyl)pyrrolidine-1-carbonyl)-4-(dimethylamino)-4-methylpent-2-enenitrile], the 50% inhibitory concentration (IC50) worked out at 6 nM.
On to `CN(C)C(C)(C)C=C(C#N)C(=O)N1CCC[C@H]1Cn1nc(-c2ccc(Oc3cccc(F)c3F)cc2F)c2c(N)ncnc21` [Cpd 106B, (S)-2-(2-((4-amino-3-(4-(2,3-difluorophenoxy)-2-fluorophenyl)-1H-pyrazolo[3,4-d]pyrimidin-1-yl)methyl)pyrrolidine-1-carbonyl)-4-(dimethylamino)-4-methylpent-2-enenitrile], for which the IC50 was 1.5 nM.
On the same count and under the same terms, the same measure for `C[C@H](Cn1nc(-c2ccc(Oc3ccccc3)cc2F)c2c(N)ncnc21)NC(=O)C(C#N)=CC(C)(C)N` [Cpd 188]: 0.7 nM; for `C[C@@H](Cn1nc(-c2ccc(Oc3ccccc3)cc2F)c2c(N)ncnc21)NC(=O)C(C#N)=CC1CC1` [Cpd 197B]: 32.5 nM.

Still in this test, the particulars now being: read-out: IC50 (μm).
Take `NC(=O)C(=CC1CC1)C(=O)N1CCC[C@@H](n2nc(-c3ccc(Oc4ccccc4)cc3)c3c(N)ncnc32)C1` [Cpd 30A, (R)-2-(3-(4-amino-3-(4-phenoxyphenyl)-1H-pyrazolo[3,4-d]pyrimidin-1-yl)piperidine-1-carbonyl)-3-cyclopropylacrylamide]: the 50% inhibitory concentration (IC50) came to 1.7 nM.

Values taken from patent US9572811B2, “Treatment of dry eye” (PRINCIPIA BIOPHARMA INC., priority 2012, dated 2017).
